Measured values reported in patent US20240110004A1 (Northwestern University, priority 2022, published 2024).
Where no end group is shown, it is not given here.

Assays:
pepsin = pepsin (Sus scrofa, UniProt P00791)
Description: Stability of PLPs Methods I: For enzyme-induced cleavage experiments, the molar concentration of enzymes was set to 0.1 μM. The concentration of side-chain peptides (having sequence identity of SEQ ID: 1) varied in the range of 50-200 μM. For each enzyme, temperature was set for optimal enzyme activity. In a typical experiment, P1 or HV3-TAT was dissolved in DPBS (pH 7.4) or hydrochloric acid solution (pH 2), to obtain a stock polymer/peptide solution with a peptide concentration of 200 μM. Next, 5 μL of enzyme stock solution (10 μM) was added into 500 μL of the polymer/peptide solution which was subsequently stirred in a preheated oil bath at 37° C. In this case, the molar ratio of peptide substrate to enzymes was 2000:1. During the cleavage, aliquots were taken for HPLC analysis at predetermined time points. Each degradation experiment was repeated three times. Enzyme pretreated P1 was also run on SDS-PAGE and visualized with Coomassie Blue staining.

R6/2 mice = test: In vivo efficacy in R6/2 Huntington's disease mice, behavioral analysis, body weight, survival; set-up: species or system mouse; conditions: for open field horizontal activity / open field total distance / open field vertical activity: 13 weeks; for survival: over the saline control; for average percent of body weight gain: week 13
Description: FIG. 31A-31F: For each of FIG. 31A-31F, data is shown reflecting the results of 3 separate studies (i.e., “Batch 1+2+3”) conducted under identical conditions; “veh” refers to the vehicle saline control. For each of FIG. 31A-31C at week 6, WT: n=15; WT+P1: n=15; R62 veh: n=22; R62+HV3-TAT: n=32; and R62+P1: n=16. For each of FIG. 31D-31F at week 6, WT: n=15; WT+P1: n=15; R62 veh: n=17; R62+HV3-TAT: n=30; and R62+P1: n=13. FIG. 31A depicts the average percent of body weight gain for mice subjected to each treatment. From top to bottom, the week 13 data points correspond to: WT+P1 (˜43%); WT (˜39%); R62+P1 (˜1%); R62+HV3-TAT (˜ […]); and R62 (˜-9%). FIG. 31B depicts the survival rate for each treatment group over time. 100% survival rate for WT veh and WT+P1. R62+P1 as compared to R62 veh: p-value=0.0454; R62+HV3-TAT as compared to R62 veh: p-value=0.0201. FIG. 31C depicts the average hindlimb clasping score for each treatment group at weeks 11, 12, and 13. For each week: R62 mice treated with vehicle (left), R62 treated with HV3-TAT (middle), and R62 treated with P1 (right). p-values in week 11: 0.0145 (top—R62 veh as compared to R62+P1), 0.0432 (middle—R62 veh as compared to R62+HV3-TAT), and 0.6051 (bottom—R62+HV3-TAT as compared to R62+P1); week 12: 0.0037 (top—R62 veh as compared to R62+P1), 0.0263 (middle—R62 veh as compared to R62+HV3-TAT), and 0.3957 (bottom—R62+HV3-TAT as compared to R62+P1); week 13: 0.0031 (top—R62 veh as compared to R62+P1), 0.0177 (middle—R62 veh as compared to R62+HV3-TAT), and 0.4938 (bottom—R62+HV3-TAT as compared to R62+P1). FIG. 31D depicts results from the open field tests representing the total distance traveled at final data collection. p-value for: WT veh as compared to R62 veh: <0.0001; WT+P1 as compared to R62 veh: <0.0001; R62 veh as compared to R62+HV3-TAT: 0.0021; R62 veh as compared to R62+P1: <0.0001; R62+HV3-TAT as compared to R62+P1: 0.1486. FIG. 31E depicts results from the horizontal activity tests. p-value for: WT veh as compared to R62 veh: <0.0001; WT+P1 as compared to R62 veh: <0.0001; R62 veh as compared to R62+HV3-TAT: 0.0262; R62 veh as compared to R62+P1: <0.0001; R62+HV3-TAT as compared to R62+P1: 0.0083. FIG. 31F depicts results from the vertical activity tests. P-value for: WT veh as compared to R62 veh: 0.0004; WT+P1 as compared to R62 veh: <0.0001; R62 veh as compared to R62+HV3-TAT: 0.2879; R62 veh as compared to R62+P1: 0.0375; R62+HV3-TAT as compared to R62+P1: 0.6222.
In vivo Efficacy Methods—Behavioral Analysis: All experiments in animals were conducted in accordance with protocols approved by the Institutional Animal Care and Use Committee of Northwestern University and were performed based on the National Institutes of Health Guide for the Care and Use of Laboratory Animals. HV3-TAT at its operating dose, saline (negative control), and P1 at a dose of […] (3 mg/kg/day with respect to peptide) were administered to Huntington's phenotype R6/2 (sometimes referred to herein as R62) mice and WT mice via Alzet osmotic pump from 6 to 13 weeks of age. The accepted HD phenotype is a decrease in motor coordination, general motility and body weight in male mice as they age from 5 to 13 weeks. A key phenotype of R6/2 mice is hindlimb clasping. Accordingly, hindlimb clasping was assessed with the tail suspension test weekly from the ages 7 to 13 weeks in R6/2 mice and WT littermates. Mice were suspended by the tail for 60 sec and the latency for the hindlimbs or all four paws to clasp was recorded using the following score system: clasping over 10 sec, score 3; 5-10 sec, score 2; 0-5 sec, score 1; 0 sec, score 0. The body weight and survival rate of HD mice and WT littermates were also recorded throughout the study period. For open field motor activity, gross locomotor activity was assessed in R6/2 mice and age-matched WT littermates at the ages of 13 weeks. […]

Sequence of pepsin (P00791 60-385): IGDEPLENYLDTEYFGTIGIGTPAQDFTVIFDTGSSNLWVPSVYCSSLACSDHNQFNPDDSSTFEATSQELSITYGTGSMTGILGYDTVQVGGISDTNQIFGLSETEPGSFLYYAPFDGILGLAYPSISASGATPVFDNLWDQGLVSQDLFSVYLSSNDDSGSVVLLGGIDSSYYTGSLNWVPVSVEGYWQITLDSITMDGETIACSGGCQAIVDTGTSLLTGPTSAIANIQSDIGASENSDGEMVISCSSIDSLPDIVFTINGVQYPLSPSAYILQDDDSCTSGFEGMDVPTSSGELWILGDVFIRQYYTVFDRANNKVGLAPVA

Substance	cleavage by pepsin (pepsin)	open field horizontal activity (R6/2 mice)	open field total distance (R6/2 mice)	open field vertical activity (R6/2 mice)	survival (R6/2 mice)	average percent of body weight gain (R6/2 mice) [%]	percent cleavage by pepsin (pepsin; isolated enzyme pepsin, 50 min, 200 μM) [%]	hindlimb clasping (R6/2 mice; tail suspension test, weekly)
P1: PLP homopolymer having peptide side chains of SEQ ID: 1 (HVLVMSATRR), made by ROMP of norbornene peptide monomer M1 (also: side chains of polynorbornene homopolymer (PLP, ROMP of norbornene peptide monomer))	no cleavage observed	improved	improved	improved	significantly extending survival	~1	–	–
peptide sequence HVLVMCAT (HV3) coupled to the cell penetrating, HIV-derived TAT peptide [HV3-TAT, reference compound]	–	improved	improved	improved	significantly extending survival	~4	100	longer clasping time than P1 treated mice
